# Activity calls are given as the source filed them. The rule behind the calls is not given here.
# What was measured:
# Candida albicans [1] = assay: Antifungal activity against Candida albicans SC5314 assessed as inhibition of fungal growth incubated for 24 hrs by CLSI protocol based microbroth dilution method; assay type: functional
# Candida parapsilosis = assay: Antifungal activity against Candida parapsilosis 22019 assessed as inhibition of fungal growth incubated for 24 hrs by CLSI protocol based microbroth dilution method; assay type: functional; settings: Lodderomyces parapsilosis
# Candida tropicalis [2] = assay: Antifungal activity against Candida tropicalis 2718 assessed as inhibition of fungal growth incubated for 24 hrs by CLSI protocol based microbroth dilution method; assay type: functional
# Pichia kudriavzevii [3] = assay: Antifungal activity against Candida krusei 4946 assessed as inhibition of fungal growth incubated for 24 hrs by CLSI protocol based microbroth dilution method; assay type: functional
# Nakaseomyces glabratus [4] = assay: Antifungal activity against Candida glabrata 537 assessed as inhibition of fungal growth incubated for 48 hrs by CLSI protocol based microbroth dilution method; assay type: functional
# Cryptococcus neoformans [5] = assay: Antifungal activity against Cryptococcus neoformans H99 assessed as inhibition of fungal growth incubated for 72 hrs by CLSI protocol based microbroth dilution method; assay type: functional
# Aspergillus fumigatus = assay: Antifungal activity against Aspergillus fumigatus 7544 assessed as inhibition of fungal growth incubated for 48 hrs by CLSI protocol based microbroth dilution method; assay type: functional
# [Candida] auris [6] = Antifungal activity against fluconazole resistant Candida auris 887 assessed as inhibition of fungal growth incubated for 48 hrs by CLSI protocol based microbroth dilution method; assay type: functional; settings: Candidozyma auris
# [Candida] auris [7] = Antifungal activity against fluconazole resistant Candida auris 888 assessed as inhibition of fungal growth incubated for 48 hrs by CLSI protocol based microbroth dilution method; assay type: functional; settings: Candidozyma auris
# [Candida] auris [8] = Antifungal activity against fluconazole resistant Candida auris D12 assessed as inhibition of fungal growth incubated for 48 hrs by CLSI protocol based microbroth dilution method; assay type: functional; settings: Candidozyma auris
# [Candida] auris [9] = Antifungal activity against fluconazole resistant Candida auris BS12372 assessed as inhibition of fungal growth incubated for 48 hrs by CLSI protocol based microbroth dilution method; assay type: functional; settings: Candidozyma auris
# [Candida] auris [10] = Antifungal activity against fluconazole resistant Candida auris 789 assessed as inhibition of fungal growth incubated for 48 hrs by CLSI protocol based microbroth dilution method; assay type: functional; settings: Candidozyma auris
# [Candida] auris [11] = Antifungal activity against fluconazole resistant Candida auris 791 assessed as inhibition of fungal growth incubated for 48 hrs by CLSI protocol based microbroth dilution method; assay type: functional; settings: Candidozyma auris
# Candida albicans [12] = assay: Antifungal activity against Candida albicans SC5314 assessed as inhibition of fungal growth at 0.0156 ug/ml incubated for 24 hrs by plate reader analysis; assay type: functional, organism-based; settings: dose 0.0156 µg/ml
# Cryptococcus neoformans [13] = assay: Antifungal activity against Cryptococcus neoformans H99 assessed as inhibition of fungal growth at 0.125 ug/ml incubated for 48 hrs by plate reader analysis; assay type: functional, organism-based; settings: dose 0.125 µg/ml
# Nakaseomyces glabratus [14] = assay: Antifungal activity against Candida glabrata 537 assessed as inhibition of fungal growth at 0.25 ug/ml incubated for 24 hrs by plate reader analysis; assay type: functional, organism-based; settings: dose 0.25 µg/ml
# Pichia kudriavzevii [15] = assay: Antifungal activity against Candida krusei 4946 assessed as inhibition of fungal growth at 0.125 ug/ml incubated for 24 hrs by plate reader analysis; assay type: functional, organism-based; settings: dose 0.125 µg/ml
# Candida tropicalis [16] = assay: Antifungal activity against Candida tropicalis 2718 assessed as inhibition of fungal growth at 32 ug/ml incubated for 24 hrs by plate reader analysis; assay type: functional, organism-based; settings: dose 32.0 µg/ml
# Candida albicans [17] = assay: Inhibition of biofilm formation in Candida albicans SC5314 incubated for 24 hrs by XTT reduction assay; assay type: functional, organism-based; settings: dose 0.008-4 µg/ml
# Candida albicans [18] = assay: Inhibition of biofilm formation in Candida albicans SC5314 at 0.008 ug/ml incubated for 24 hrs by XTT reduction assay relative to control; assay type: functional
# [19] = Half-life in male ICR (CD-1) mouse at 5 mg/kg, iv by LC-MS/MS analysis; assay type: ADME, organism-based; settings: in vivo
# [20] = AUC (0 to t) in male ICR (CD-1) mouse at 5 mg/kg, iv by LC-MS/MS analysis; assay type: ADME, organism-based; settings: in vivo
# [21] = Clearance in male ICR (CD-1) mouse at 5 mg/kg, iv by LC-MS/MS analysis; assay type: ADME, organism-based; settings: in vivo
# [22] = MRT (0 to t) in male ICR (CD-1) mouse at 5 mg/kg, iv by LC-MS/MS analysis; assay type: ADME, organism-based; settings: in vivo
# [23] = Volume of distribution at steady state in male ICR (CD-1) mouse at 5 mg/kg, iv by LC-MS/MS analysis; assay type: ADME, organism-based; settings: in vivo, read-out: Vdss
# [24] = Cmax in male ICR (CD-1) mouse at 10 mg/kg, po by LC-MS/MS analysis; assay type: ADME, organism-based; settings: in vivo
# [25] = Tmax in male ICR (CD-1) mouse at 10 mg/kg, po by LC-MS/MS analysis; assay type: ADME, organism-based; settings: in vivo
# [26] = Half-life in male ICR (CD-1) mouse at 10 mg/kg, po by LC-MS/MS analysis; assay type: ADME, organism-based; settings: in vivo
# [27] = AUC (0 to t) in male ICR (CD-1) mouse at 10 mg/kg, po by LC-MS/MS analysis; assay type: ADME, organism-based; settings: in vivo
# [28] = MRT (0 to t) in male ICR (CD-1) mouse at 10 mg/kg, po by LC-MS/MS analysis; assay type: ADME, organism-based; settings: in vivo
# [29] = Oral bioavailability in male ICR (CD-1) mouse at 10 mg/kg by LC-MS//MS analysis; assay type: ADME, organism-based; settings: in vivo
# Candida albicans [30] = assay: Antifungal activity against Candida albicans SC5314 infected in ICR mouse model assessed as fungal burden in kidney at 1 mg/kg/day, po pre-infected with fungi for 2 hrs followed by compound administration and measured after 48 hrs (reference value: 3.89 Log10CFU/g); assay type: functional
# Candida albicans [31] = assay: Antifungal activity against Candida albicans SC5314 infected in ICR mouse model assessed as fungal burden in kidney at 5 mg/kg/day, po pre-infected with fungi for 2 hrs followed by compound administration and measured after 48 hrs (reference value: 3.89 Log10CFU/g); assay type: functional
# Candida albicans [32] = assay: Antifungal activity against Candida albicans SC5314 infected in ICR mouse model assessed as reduction in fungal burden in kidney pre-infected with fungi for 2 hrs followed by oral administration of compound and measured after 48 hrs; assay type: functional, organism-based; settings: dose 1-5 mg/kg/day
# Candida albicans [33] = assay: Antifungal activity against Candida albicans SC5314 infected in ICR mouse model assessed as median survival time at 1 mg/kg/day, po pre-infected with fungi for 2 hrs followed by compound administration and measured after 48 hrs (reference value: 3.5 days); assay type: functional
# Candida albicans [34] = assay: Antifungal activity against Candida albicans SC5314 infected in ICR mouse model assessed as median survival time at 5 mg/kg/day, po pre-infected with fungi for 2 hrs followed by compound administration and measured after 48 hrs (reference value: 3.5 days); assay type: functional
# Erythrocyte = assay: Hemolytic activity in rabbit RBC assessed as hemolysis at 64 ug/ml incubated for 1 hrs by absorbance based assay; assay type: toxicity, cell-based, Oryctolagus cuniculus; settings: dose 64 µg/ml
# [35] = target: T1, Lanosterol 14-alpha demethylase (Candida albicans (strain SC5314 / ATCC MYA-2876) (Yeast), UniProt P10613); assay: Inhibition of CYP51 in Candida albicans SC5314 assessed as decrease in ergosterol level at 0.008 ug/ml incubated for 8 hrs by GC-MS analysis; settings: at 0.008 µg/mL
# [36] = target: T1, Lanosterol 14-alpha demethylase; assay: Inhibition of CYP51 in Candida albicans SC5314 assessed as increase in obtusifoliol level at 0.008 ug/ml incubated for 8 hrs by GC-MS analysis relative to control; design: scale not given: the % may be the effect or the level left; settings: at 0.008 µg/mL
# [37] = target: T1, Lanosterol 14-alpha demethylase; assay: Inhibition of CYP51 in Candida albicans SC5314 assessed as increase in eburicol level at 0.008 ug/ml incubated for 8 hrs by GC-MS analysis relative to control; design: scale not given: the % may be the effect or the level left; settings: at 0.008 µg/mL
# Cell membrane = assay: Disruption of cell membrane integrity in Candida albicans SC5314 assessed as increase in increase in red fluorescence at 0.5 ug/ml incubated for 8 hrs by PI staining based fluorescence microscopic analysis; settings: dose 0.5 µg/ml
# Candida albicans [38] = assay: Antifungal activity in Candida albicans SC5314 assessed as inhibition of fungal growth incubated for 4 days by induction of resistance assay; assay type: functional; settings: SC5314, 96 h, time 4 day
# Candida albicans [39] = assay: Antifungal activity in Candida albicans SC5314 assessed as inhibition of fungal growth incubated for 17 days by induction of resistance assay; assay type: functional; settings: SC5314, 408 h, time 17 day
# T1 sequence (P10613 whole entry): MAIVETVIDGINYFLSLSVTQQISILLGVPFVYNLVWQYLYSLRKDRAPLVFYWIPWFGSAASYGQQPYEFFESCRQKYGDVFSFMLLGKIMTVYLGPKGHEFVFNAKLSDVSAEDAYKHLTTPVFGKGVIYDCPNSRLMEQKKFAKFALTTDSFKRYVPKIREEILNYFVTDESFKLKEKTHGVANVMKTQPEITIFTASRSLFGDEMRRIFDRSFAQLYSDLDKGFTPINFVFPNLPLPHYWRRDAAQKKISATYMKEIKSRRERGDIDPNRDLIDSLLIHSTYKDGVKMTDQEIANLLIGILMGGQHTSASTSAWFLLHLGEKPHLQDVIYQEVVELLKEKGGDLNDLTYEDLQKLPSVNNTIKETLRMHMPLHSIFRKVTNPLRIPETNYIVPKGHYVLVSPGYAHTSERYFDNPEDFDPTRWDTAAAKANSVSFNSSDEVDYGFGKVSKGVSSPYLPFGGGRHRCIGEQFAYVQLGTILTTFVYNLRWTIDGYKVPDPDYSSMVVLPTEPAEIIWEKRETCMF
compound,measurement,setting,value
C[C@@H](n1ccc2cc(Cl)ccc2c1=O)[C@](O)(Cn1cnnn1)c1ccc(F)cc1F,MIC50,Candida albicans [1],< 0.008 µg/mL
same,MIC50,Candida parapsilosis,< 0.008 µg/mL
same,MIC50,Candida tropicalis [2],< 0.008 µg/mL
same,MIC50,Pichia kudriavzevii [3],0.031 µg/mL
same,MIC50,Nakaseomyces glabratus [4],< 0.008 µg/mL
same,MIC50,Cryptococcus neoformans [5],< 0.008 µg/mL
same,MIC50,Aspergillus fumigatus,2 µg/mL
same,MIC50,[Candida] auris [6],0.5 µg/mL
same,MIC50,[Candida] auris [7],0.25 µg/mL
same,MIC50,[Candida] auris [8],< 0.125 µg/mL
same,MIC50,[Candida] auris [9],< 0.125 µg/mL
same,MIC50,[Candida] auris [10],0.5 µg/mL
same,MIC50,[Candida] auris [11],1 µg/mL
same,Activity,Candida albicans [12],Active
same,Activity,Cryptococcus neoformans [13],Active
same,Activity,Nakaseomyces glabratus [14],Active
same,Activity,Pichia kudriavzevii [15],Active
same,Activity,Candida tropicalis [16],Active
same,inhibition,Candida albicans [17],Dose-Dependent Effect
same,inhibition at 0.008 µg/mL,Candida albicans [18],> 70%
same,half-life,[19],4.28 h
same,AUC(0-t),[20],18500 ng·h/mL
same,clearance,[21],3.27 mL/min/kg
same,MRT last,[22],3.27 h
same,Vd,[23],1.23 L/kg
same,Cmax,[24],2630 ng/mL
same,Tmax,[25],2 h
same,half-life,[26],6.71 h
same,AUC(0-t),[27],13600 ng·h/mL
same,MRT last,[28],3.66 h
same,bioavailability,[29],36.8%
same,Activity,Candida albicans [30],2.92 log10CFU/g
same,Activity,Candida albicans [31],2.25 log10CFU/g
same,Activity,Candida albicans [32],Dose-Dependent Effect
same,MST,Candida albicans [33],8.5 days
same,MST,Candida albicans [34],10 days
same,Activity,Erythrocyte,Non-Toxic
same,inhibition (INH),[35],Active
same,Activity,[36],19.33%
same,Activity,[37],24.85%
same,Activity,Cell membrane,Active
same,MIC,Candida albicans [38],0.016 µg/mL
same,MIC,Candida albicans [39],0.125 µg/mL
